Experimental data: US20020039787A1, “Method for culturing cells” (priority 2000, published 2002)

Legend:
[1] = system: human myometrial microvascular endothelial cells (MEC); assay: Endothelial cell proliferation assay (CellTitre 96 MTS bioassay); type: cell-based; conditions: for effect of cAMP promoter on bFGF-stimulated MEC proliferation: IBMX 330 μM, dibutyryl cAMP 50 μM; for stimulation of MEC proliferation by maximal concentrations of growth factors: P5 MEC, M199 with 20% HS, 6 days (FIG. 5); for growth factor-stimulated MEC proliferation with combinations of HS and FCS in the medium: compared with HS alone (FIG. 3B); for dose dependence of stimulated MEC proliferation: concentration range 0.01-20 ng/ml (FIG. 6); for EC50 of growth factor-induced MEC proliferation: 6 days, absorbance as % of maximal response
Procedure: The CellTitre 96 MTS tetrazolium-based bioassay (Promega, Madison, WT, USA), where the absorbance of the formazan product is directly proportional to the number of viable cells, was used to indirectly measure cell number after incubation of MEC with various mitogens. It was initially established that the MTS bioassay was linear from 0-2 ×10^4 MEC/well. MEC in basal M199 medium (M199 medium containing 5% PCS, 2 mM glutamine, antibiotic/antimycotic mixture) were seeded in triplicate onto fibronectin (10 μg/ml) coated wells of 96 well plates at 2000 cells/well and allowed to attach the quiesce for 36 hours at 37° C. in 5% CO2/air. Medium was replaced with the standard or complex M199 culture medium (day 0) with or without the following growth factors: 10 ng/ml vascular endothelial growth factor (VEGF121;gift from Dr J Abrahams, Scios Inc, Sunnyvale, Calif., USA), 0.01-20 ng/ml VEGF165 (R & D Systems, Minneapolis, Minn., USA) bFGF (0.01-10 ng/ml), 120 μg/ml EC growth factor (ECGF; Boehringer Mannheim) 50 ng/ml epidermal growth factor (EGF; R & D Systems), depending on the assay conditions being tested. In some experiments different concentrations of HS and FCS and combinations of both were tested and in other experiments various component of the complex medium were omitted. Cells were incubated at 37° C. in 5% CO2/air for 6 or 10 days, with medium changes every 2 days. Twenty μl 3-(4,5-dimethylthiazol-2-yl)-5-(3-carboxymethoxyphenyl)-2-(4sulphophenyl)-2H-tetrazolium (MTS) was added to the cells and incubated 2 hours at 37° C. and absorbance measured at 490 nm using a plate reader (Emax, Molecular Devices, Sunnyvale, Calif., USA). Absorbance was also measured on day 0 and this value subtracted from all results to determine MEC growth over 6 days.

[2] = system: human myometrial microvascular endothelial cells (MEC); assay: MEC migration assay (monolayer wound assay); type: cell-based; set-up: key to migration of MEC into denuded area, Early Passage MEC (P4) / migration of MEC into denuded area, Late Passage MEC (P12): +/−: very low; +: low; ++: medium; +++: high coverage of the denuded area; conditions: for migration of MEC in response to growth factor: 48 hour incubation in basal medium, high and low passage MEC; for migration of MEC into denuded area, Early Passage MEC (P4) / migration of MEC into denuded area, Late Passage MEC (P12): semi-quantitative coverage of denuded area after wounding, basal medium
Procedure: […] The medium was changed to basal medium, the MEC monolayers wounded using a plastic pasteur pipette and photographed using a Zeiss inverted phase contrast microscope. Duplicate wells were incubated with or without VEGF165 (10 ng/ml) or bFGF (5 ng/ml) in the presence and absence of 40 μg/ml rabbit anti human VEGF antibody (Gargett et al., 1999) or 50 μg/ml goat anti-human bFGF antibody (R & D Systems) respectively for 48 hours at 37° C. in 5% CO/air and the same field of view was rephotographed.
A characteristic feature of EC is their ability to migrate in response to certain growth factors (Goodman et al., 1985; Ferrara and DavisSmyth, 1997). The migration of early and late passage myometrial MEC in response to bFGF and VEGF was examined using the monolayer wound assay (Goodman el al., 1985) in the presence and absence of neutralising bFGF and VEGF antibodies.

[3] = over 10 days, 5 ng/ml bFGF, 15% HS/5% FCS (FIG. 4)
[4] = early (low) passage MEC (P1, P2, P3)
[5] = late (high) passage MEC (P10, P13)

Row | Compound | effect of cAMP promoter on bFGF-stimulated MEC proliferation [1, 3] | stimulation of MEC proliferation by maximal concentrations of growth factors [1] | migration of MEC in response to growth factor [2] | migration of MEC into denuded area, Early Passage MEC (P4) [2] | migration of MEC into denuded area, Late Passage MEC (P12) [2] | growth factor-stimulated MEC proliferation with combinations of HS and FCS in the medium [1] | dose dependence of stimulated MEC proliferation [1] | EC50 of growth factor-induced MEC proliferation [1, 4] [ng/mL] | difference in absorbance between maximal and minimal response measured at day 6 ([1]; high passage MEC, n=2) | EC50 of growth factor-induced MEC proliferation [1, 5] [ng/mL] | difference in absorbance between maximal and minimal response measured at day 6 ([1]; low passage MEC, n=3) | other results
1 | C[C@]12CCC(=O)C=C1CC[C@@H]1[C@@H]2[C@@H](O)C[C@@]2(C)[C@H]1CC[C@]2(O)C(=O)CO [Hydrocortisone, hydrocortisone, reference compound] |  |  |  |  |  |  |  |  |  |  |  | effect on bFGF-induced myometrial MEC proliferation ([1]; in the presence or absence of IBMX or dibutyryl cAMP (results not shown)): no significant effect
2 | CC(C)Cn1c(=O)n(C)c(=O)c2[nH]cnc21 [IBMX, 3-isobutyl-1-methyl xanthine, reference compound] | significantly greater proliferation of myometrial MEC over 10 days in the absence |  |  |  |  |  |  |  |  |  |  | 
3 | CCCC(=O)Nc1ncnc2c1ncn2[C@@H]1O[C@@H]2COP(=O)(O)O[C@H]2[C@H]1OC(=O)CCC [dibutyryl cAMP, N-6, 2 ′-O-dibutyryl adenosine 3′,5′-cyclic monophosphate, reference compound] | significantly greater proliferation of myometrial MEC over 10 days in the absence |  |  |  |  |  |  |  |  |  |  | effect of cAMP promoter on bFGF-stimulated MEC proliferation ([1]; after 5 days, 5 ng/ml bFGF (FIG. 4)): greater growth was observed in the absence
4 | EGF: epidermal growth factor (R & D Systems) (NSDSECPLSHDGYCLHDGVCMYIEALDKYACNCVVGYIGERCQYRDLKWWELR; Epidermal growth factor; UniProt P01133 971-1023, looked up) |  | weakly mitogenic |  |  |  |  |  |  |  |  |  | 
5 | bFGF: mitogen, growth factor (Gibco BRL) |  | maximal stimulation of MEC proliferation | migrated into the denuded area to a comparable extent | +++ | ++ | even greater levels of MEC proliferation | dose dependent manner | ~0.6 | 0.82 | ~0.9 | 0.50 ±0.07 | 
6 | vascular endothelial growth factor [VEGF] |  |  | migrated into the denuded area to a comparable extent | +++ | +++ | even greater levels of MEC proliferation | dose dependent manner | ~1.5 | 0.70 | ~1.6 | 0.51 ±0.09 | 
